From patent US20210386762A1, “THE APPLICATION OF URSODEOXYCHOLIC ACID OR ITS PHARMACEUTICAL SALT IN THE PREPARATION OF AN ANTITUMOR DRUG AND AN ANTITUMOR DRUG” (ZHEJIANG UNIVERSITY, priority 2018, published 2021)

B1: SHR-1210: humanized anti-PD-1 antibody produced by Hengrui Medicine (antibody, chains of the INN, looked up, V domains shown)
VH: EVQLVESGGGLVQPGGSLRLSCAASGFTFSSYMMSWVRQAPGKGLEWVATISGGGANTYYPDSVKGRFTISRDNAKNSLYLQMNSLRAEDTAVYYCARQLYYFDYWGQGTTVTVSS
VL: DIQMTQSPSSLSASVGDRVTITCLASQTIGTWLTWYQQKPGKAPKLLIYTATSLADGVPSRFSGSGSGTDFTLTISSLQPEDFATYYCQQVYSIPWTFGGGTKVEIK

Legend:
[1] = test system: colon cancer cell line MC38; assay: Combination with anti-PD-1 antibody, colon cancer model in humanized PD-1 transgenic mice; type: in vivo, mouse; settings: MC38 subcutaneous, SHR-1210 10 mg/kg every two days, URSO 30 mg/kg every other day, vs water and humanized IgG4 (FIG. 5)
From the text: (§1) Female C57BL/6 (6-8 weeks old) mice were purchased from Shanghai SLAC Laboratory Animal Co., Ltd.; humanized PD-1 transgenic mice were purchased from Nanjing Biomedical Research Institute of Nanjing University; and all mice were raised in SPF facilities. Mouse colon cancer cell line MC38, lung cancer cell line LLC-luci and melanoma cell line B16 were all purchased from American Type Culture Collection (ATCC).
(§2) To verify whether the combined use of ursodeoxycholic acid and anti-PD-1 antibody can improve antitumor effect, colon cancer cell line MC38, melanoma cell line B16 and lung cancer cell line LLC are inoculated subcutaneously into humanized PD-1 transgenic mice, which were randomly divided into four groups when tumor volume reaches 100 mm^3. Treatment groups were treated with SHR-1210, URSO or SHR-1210 in combination with URSO, while the control groups were injected with water and humanized IgG4 (an isotype control for SHRR-1210). SHR-1210 was used every two days at a dosage of 10 mg/kg, while URSO was used every other day at 30 mg/kg, with the volume of tumor recorded each time.

melanoma cell line B16 [2] = assay: Combination with anti-PD-1 antibody, melanoma model in humanized PD-1 transgenic mice; type: in vivo, mouse; settings: B16 subcutaneous, SHR-1210 10 mg/kg every two days, URSO 30 mg/kg every other day, vs water and humanized IgG4 (FIG. 7)
From the text: as §1, §2

[3] = test system: lung cancer cell line LLC; assay: Combination with anti-PD-1 antibody, lung cancer model in humanized PD-1 transgenic mice; type: in vivo, mouse; settings: LLC subcutaneous, SHR-1210 10 mg/kg every two days, URSO 30 mg/kg every other day, vs water and humanized IgG4 (FIG. 6)
From the text: as §1, §2

[4] = test system: lung cancer cell line LLC-luci; assay: Lung cancer tumor-bearing mouse model (C57BL/6); type: in vivo
From the text: (§3) Female C57BL/6 (6-8 weeks old) mice were purchased from Shanghai SLAC Laboratory Animal Co., Ltd.; humanized PD-1 transgenic mice were purchased from Nanjing Biomedical Research Institute of Nanjing University; and all mice were raised in SPF facilities. Mouse colon cancer cell line MC38, lung cancer cell line LLC-luci and melanoma cell line B16 were all purchased from American Type Culture Collection (ATCC). Since Treg cells can inhibit extensive antitumor immune response while promoting angiogenesis in the tumor microenvironment, to explore the in vivo influence of ursodeoxycholic acid on Treg cells, tumor-bearing models are established using mouse colon cancer cell line MC38, lung cancer cell line LLC-luci and melanoma cell line B16, with female SPF-grade C57BL/6 as the experiment subject. For better internal absorption of ursodeoxycholic acid, the above-mentioned ursodeoxycholic acid is replaced with sodium ursodeoxycholate (SANTA CRUZ BIOTECHNOLOGY, #2898-95-5). The control group and the experimental group both received injection of ddH2O and URSO (30 mg/kg) every day, with tumor size observed and recorded. […] Two weeks later, separate the tumor-infiltrating lymphocytes for analysis by flow cytometry. […]

[5] = test system: colon cancer cell line MC38; assay: Colon cancer tumor-bearing mouse model (C57BL/6); type: in vivo
From the text: as §3

melanoma cell line B16 [6] = assay: Melanoma tumor-bearing mouse model (C57BL/6); type: in vivo
From the text: as §3

[7] = test system: Treg cell differentiation (mouse naïve CD4+ T cells); assay: In vitro Treg cell differentiation of mouse naïve CD4+ T cells, flow cytometry; type: cell-based; settings: 50 μM vs DMSO, anti-CD3/anti-CD28, flow cytometry on day 4 (FIG. 1)
From the text: Treg cell surface can express CD4 and CD25 molecules. In addition, it is characterized by its high expression of transcription factor Foxp3. Based on the characteristic above, flow cytometry is adopted to explore the in vitro influence of ursodeoxycholic acid on Treg cell differentiation. Detailed procedures are as follows: T cell sorting: Mouse T cells were sorted by immunomagnetic beads methods. The mice were killed by cervical dislocation, spleens and lymph nodes were taken under aseptic conditions, ground and put through a sieve, centrifuged at 400 g for 5 min, and cells were resuspended with sort buffer. The total cells were counted with 3% glacial acetic acid, and proceeded strictly following the instructions of the sorting kit. CD4 negative selection kit (EasySep™ Mouse CD4+ T Cell Isolation Kit, #19852A) and Biotin sorting kit (EasySep™ Mouse Biotin Positive Selection Kit, #18556) were used in combination for sorting naïve CD4+ T cells (CD4-positive naïve T cells). […] After sorting, when the CD4+CD62L+ purity detected by flow cytometry is greater than 95%, cells were used for further experiments. […] DMSO or ursodeoxycholic acid U5127 (SIGMA-ALDRICH, #128-13-2) was added with a concentration of 50 μM respectively, and the differentiation of Treg cells were detected by flow cytometry on day 4. […]

[8] = test system: Treg cell differentiation (human naïve CD4+ T cells); assay: In vitro Treg cell differentiation of human naïve CD4+ T cells, flow cytometry; type: cell-based; settings: human naïve CD4+ T cells from healthy volunteers, CD3/CD28 activation, flow cytometry on day 4 (FIG. 8)
Experimental: To investigate the influence of ursodeoxycholic acid on humanized Treg cell differentiation, whole blood of volunteers were collected (ethics approval: approved by Medical Ethics Committee of Zhejiang University School of Medicine, Shen Lun No. 2019-013; five healthy volunteers, 10 ml peripheral venous blood each, collected by Zhejiang Medial & Health Group Hangzhou Hospital). naïve CD4+ T cells were sorted. Detailed procedures are as follows: 1. Separation of peripheral blood mononuclear cells: • (1) Fresh anticoagulant whole blood (EDTA, sodium citrate or heparin) was taken. Whole blood was diluted with isotonic solution (PBS or normal saline) of equal volume. • (2) A certain volume of separating medium (VESTA, #7111011) was added into a centrifuge tube, diluted blood sample was spread evenly on the surface of separating medium, and maintained a clear interface between two liquid surfaces. […] Sorting of human naïve CD4+ T cells: • (1) With Human naïve CD4+ T Cell Kit (STEMCELL, #19155) and the standard kit method adopted, naïve CD4+ T cells were sorted from human peripheral blood mononuclear cells, and plating was conducted according to the method in Example 1. • (2) Human T-Activator CD3/CD28 was added for T Cell Expansion and Activation (Gibco, #11161D). • (3) On day 4, Treg cell differentiation was detected by flow cytometry.

| Molecule | tumor growth (tumor volume) [1] | tumor growth (tumor volume) (melanoma cell line B16 [2]) | tumor growth (tumor volume) [3] | tumor volume ([4]; C57BL/6 mice, 30 mg/kg injection every day, vs ddH2O control (FIG. 3A)) | tumor volume ([5]; C57BL/6 mice, 30 mg/kg injection every day, vs ddH2O control (FIG. 4A)) | tumor volume (melanoma cell line B16 [6]; C57BL/6 mice, 30 mg/kg injection every day, vs ddH2O control (FIG. 2A)) | proportion of endogenous Treg cells [7] | differentiation of humanized endogenous Treg cells [8] | proportion of Treg cells in tumor infiltrating lymphocytes ([4]; two weeks of treatment, flow cytometry (FIG. 3B)) | proportion of Treg cells in tumor infiltrating lymphocytes ([5]; two weeks of treatment, flow cytometry (FIG. 4B)) | proportion of Treg cells in tumor infiltrating lymphocytes (melanoma cell line B16 [6]; two weeks of treatment, flow cytometry (FIG. 2B)) |
| --- | --- | --- | --- | --- | --- | --- | --- | --- | --- | --- | --- |
| C[C@H](CCC(=O)[O-])[C@H]1CC[C@H]2[C@@H]3[C@@H](O)C[C@@H]4C[C@H](O)CC[C@]4(C)[C@H]3CC[C@]12C.[Na+] [URSO, sodium ursodeoxycholate] | significantly inhibited tumor growth | significantly inhibited tumor growth | significantly inhibited tumor growth | obviously smaller in volume | obviously smaller in volume | obviously smaller in volume | – | – | – | – | – |
| C[C@H](CCC(=O)O)[C@H]1CC[C@H]2[C@@H]3[C@@H](O)C[C@@H]4C[C@H](O)CC[C@]4(C)[C@H]3CC[C@]12C [ursodeoxycholic acid] | – | – | – | – | – | – | significantly reduced | reduced | reduced | reduced | reduced |
| B1 | significantly inhibited tumor growth | significantly inhibited tumor growth | significantly inhibited tumor growth | – | – | – | – | – | – | – | – |
